Source: paper PMC12507957 (Drug Delivery and Translational Research, 2025)
Several values for one entry are separate records, joined by “and”; a condition that tells them apart may be missing. Identical values can stand only once. Like-named read-outs stand apart in the source and are kept apart here. Marks after values point to notes of the source that are not given here.

Key:
[1] = In vitro skin permeation of 5%w/v MTG in single solvents (Franz diffusion cells), with infinite dose model fitting; assay type: in vitro ADME, porcine; conditions: for Papp at 48 h, 5 %w/v: pig, read-out: Kp (permeability coefficient) (converted)
Procedure: (§1) The in vitro permeation study was performed in triplicate using Franz diffusion cell apparatus with a diffusion area of ~ 0.8 cm^2 and a receptor volume of ~ 3 mL. The porcine skin was thawed at room temperature and cut into an appropriate size before mounting on the Franz diffusion cells. The receptor compartment was filled with PBS containing 0.02%w/v of sodium azide and a selected antioxidant. The Franz diffusion cells were placed into a water bath to maintain the skin temperature at 32 ± 0.5 °C. […] After 48-h permeation studies, the mass balance studies were performed.
(§2) Samples were analysed using Shimadzu liquid chromatographic system (Kyoto, Japan) with SPD-20A UV–vis detector set at 254 nm. A reverse phase ZORBAX Eclipse Plus C18 column (Agilent Technologies, 150 × 4.6 mm ID × 3.5 μm) coupled with a C18 guard column (Phenomenex SecurityGuard™, 4 × 3.0 mm ID × 5 μm) was employed as the stationary phase. A gradient elution method with acetonitrile and 0.1%v/v of formic acid as the mobile phase (30:70 to 70:30 (v/v) over 1 min and held until 4 min; then returned to 30:70 (v/v) from 4 to 6 min and held up until 10 min) at a flow rate of 1.2 mL/min was used. The injection volume was set at 100 μL and the total run time was 10 min with a retention time of ~ 4 min.
To estimate the permeation parameters (P1 and P2), the in vitro permeation data were fitted to the infinite dose model (Eq. 1) using non-linear least squares. This infinite dose model was obtained by solving the diffusion equation using Laplace transform, which was subsequently numerically inverted using Weeks method and fitted to in Python 3.13.3 (Python Software Foundation, Wilmington, DE, US).1 Q¯s=J·A/s=P1ACd/ss/P2sinhs/P2
Here, Q¯s is the cumulative amount of drug permeated, J is the permeation flux, A is the permeation area, Cd is the initial concentration, h is the membrane thickness and s is the Laplace variable. The apparent partition and apparent diffusion coefficients, P1 and P2, are related to the h and the diffusion (D) and partition (K) coefficients, as defined in Eq. 2 and Eq. 3 [32]. The goodness of fit was measured based on the coefficient of determination (R^2) and root mean square error (RMSE).2 P1=Kh 3 P2=D/h^2
The permeability coefficient (Kp), steady-state flux (Jss) and lag time (tlag) can then be calculated using Eqs. 4, 5, and 6 [33] with the estimated values of P1 and P2 from the curve fitting.4 Kp=P1P2 5 Jss=KpCd 6 tlag=h^2/6D
Other permeation parameters were determined experimentally, where A was 0.7–0.8 cm^2, h was 0.0586 cm, Cd was 50 mg/mL and the volume of drug loaded was 40 µL.

[2] = rats; cited from earlier work
[3] = Mass balance studies after 48-h skin permeation of MTG in solvents; assay type: in vitro ADME, porcine; conditions: for recovery at 48 h, 5 %w/v: pig
Procedure: as §1
Subsequently, the surface of the skin was washed twice with 500 μL of methanol before adding to the same Eppendorf tube containing the cotton buds. The skin was removed from the dissembled Franz diffusion cell and cut into pieces before placing in another Eppendorf tube containing 1 mL of methanol. All samples were vortexed and analysed using HPLC (Sect. HPLC analysis).
as §2

[4] = 5%w/v MTG in DMSO, receptor PBS with 0.01%w/v ascorbic acid (DMSO-AA), 48 h
[5] = 5%w/v MTG in DMSO, receptor PBS without ascorbic acid, 48 h
[6] = 5%w/v MTG in Labrasol, receptor PBS with 0.01%w/v ascorbic acid (Labrasol-AA), 48 h
[7] = 5%w/v MTG in Labrasol, receptor PBS without ascorbic acid, 48 h
[8] = 5%w/v MTG in Lauroglycol, receptor PBS with 0.01%w/v ascorbic acid (Lauroglycol-AA), 48 h
[9] = 5%w/v MTG in Lauroglycol, receptor PBS without ascorbic acid, 48 h
[10] = 5%w/v MTG in Maisine, receptor PBS with 0.01%w/v ascorbic acid (Maisine-AA), 48 h
[11] = 5%w/v MTG in Maisine, receptor PBS without ascorbic acid, 48 h
[12] = 5%w/v MTG in PG, receptor PBS with 0.01%w/v ascorbic acid (PG-AA), 48 h
[13] = 5%w/v MTG in PG, receptor PBS without ascorbic acid, 48 h
[14] = 5%w/v MTG in Transcutol, receptor PBS with 0.01%w/v ascorbic acid (Transcutol-AA), 48 h
[15] = 5%w/v MTG in Transcutol, receptor PBS without ascorbic acid, 48 h
[16] = 5%w/v in dimethyl sulphoxide and Transcutol, optimised receptor medium (0.01%w/v ascorbic acid in PBS)

SMILES: CC[C@@H]1CN2CCc3c([nH]c4cccc(OC)c34)[C@@H]2C[C@@H]1/C(=C\OC)C(=O)OC [MTG, mitragynine]
- Jss (steady-state flux) [1, 4]: 0.77 ± 0.18 µg/cm^2/h and 0.77 ± 0.18^d µg/cm^2/h
- P1 (apparent partition coefficient) [1, 4]: 20.35 ± 8.07 × 10^–4 cm
- P2 (apparent diffusion coefficient) [1, 4]: 8.01 ± 1.91 × 10^–3 h^−1
- Permeation (cumulative amount of MTG permeated) [1, 4]: 15.40 ± 2.40 µg/cm^2
- tlag (lag time) [1, 4]: 21.53 ± 4.53 h
- Cumulative amount of MTG permeated [1, 5]: 14.40 ± 3.34 μg/cm^2
- Jss (steady-state flux) [1, 5]: 0.52 ± 0.15 µg/cm^2/h
- P1 (apparent partition coefficient) [1, 5]: 8.90 ± 5.52 × 10^–4 cm
- P2 (apparent diffusion coefficient) [1, 5]: 13.40 ± 4.73 × 10^–3 h^−1
- tlag (lag time) [1, 5]: 13.52 ± 4.70 h
- Jss (steady-state flux) [1, 6]: 0.14 ± 0.11 µg/cm^2/h
- P1 (apparent partition coefficient) [1, 6]: 6.83 ± 5.64^a × 10^–4 cm
- P2 (apparent diffusion coefficient) [1, 6]: 4.33 ± 0.52 × 10^–3 h^−1
- Permeation (cumulative amount of MTG permeated) [1, 6]: 1.53 ± 1.08 µg/cm^2
- tlag (lag time) [1, 6]: 38.85 ± 4.39^e,f h
- Permeation (cumulative amount of MTG permeated) [1, 7]: 1.36 ± 1.45 µg/cm^2
- Jss (steady-state flux) [1, 8]: 0.11 ± 0.07 µg/cm^2/h
- P1 (apparent partition coefficient) [1, 8]: 0.65 ± 0.09^a × 10^–4 cm
- P2 (apparent diffusion coefficient) [1, 8]: 33.50 ± 18.62^b × 10^–3 h^−1
- Permeation (cumulative amount of MTG permeated) [1, 8]: 3.65 ± 2.40 µg/cm^2
- tlag (lag time) [1, 8]: 6.39 ± 4.02^e h
- Permeation (cumulative amount of MTG permeated) [1, 9]: 0.77 ± 0.25 µg/cm^2
- Jss (steady-state flux) [1, 10]: 0.27 ± 0.07 µg/cm^2/h
- P1 (apparent partition coefficient) [1, 10]: 2.18 ± 0.48^a × 10^–4 cm
- P2 (apparent diffusion coefficient) [1, 10]: 25.90 ± 8.44 × 10^–3 h^−1
- Permeation (cumulative amount of MTG permeated) [1, 10]: 8.39 ± 2.61 µg/cm^2
- tlag (lag time) [1, 10]: 7.05 ± 2.82^e h
- Jss (steady-state flux) [1, 11]: 0.10 ± 0.09 µg/cm^2/h
- P1 (apparent partition coefficient) [1, 11]: 1.89 ± 1.95 × 10^–4 cm
- P2 (apparent diffusion coefficient) [1, 11]: 12.86 ± 5.15 × 10^–3 h^−1
- Permeation (cumulative amount of MTG permeated) [1, 11]: 2.26 ± 1.93 µg/cm^2
- tlag (lag time) [1, 11]: 14.19 ± 4.62 h
- Jss (steady-state flux) [1, 12]: 0.33 ± 0.12 µg/cm^2/h
- P1 (apparent partition coefficient) [1, 12]: 9.49 ± 3.95 × 10^–4 cm
- P2 (apparent diffusion coefficient) [1, 12]: 7.17 ± 0.89 × 10^–3 h^−1
- Permeation (cumulative amount of MTG permeated) [1, 12]: 6.06 ± 2.12 µg/cm^2 and 6.06 ± 2.13 µg/cm^2
- tlag (lag time) [1, 12]: 23.50 ± 2.93 h
- Cumulative amount of MTG permeated [1, 13]: 5.24 ± 2.28 μg/cm^2
- Jss (steady-state flux) [1, 13]: 0.48 ± 0.37 µg/cm^2/h
- P1 (apparent partition coefficient) [1, 13]: 25.55 ± 25.22 × 10^–4 cm
- P2 (apparent diffusion coefficient) [1, 13]: 7.33 ± 6.13 × 10^–3 h^−1
- tlag (lag time) [1, 13]: 33.85 ± 20.70 h
- Jss (steady-state flux) [1, 14]: 0.46 ± 0.22 µg/cm^2/h
- P1 (apparent partition coefficient) [1, 14]: 10.40 ± 4.15 × 10^–4 cm
- P2 (apparent diffusion coefficient) [1, 14]: 8.76 ± 0.55 × 10^–3 h^−1
- Permeation (cumulative amount of MTG permeated) [1, 14]: 10.27 ± 4.40 µg/cm^2
- tlag (lag time) [1, 14]: 19.07 ± 1.17 h
- Jss (steady-state flux) [1, 15]: 0.44 ± 0.18 µg/cm^2/h
- P1 (apparent partition coefficient) [1, 15]: 26.94 ± 23.48 × 10^–4 cm
- P2 (apparent diffusion coefficient) [1, 15]: 4.29 ± 1.70 × 10^–3 h^−1
- Permeation (cumulative amount of MTG permeated) [1, 15]: 3.89 ± 1.41 µg/cm^2
- tlag (lag time) [1, 15]: 44.70 ± 22.17 h
- Cumulative amount of MTG permeated ([1]; 5%w/v MTG in the rest of the solvents (other than DMSO), receptor PBS without ascorbic acid, 48 h): < 4 μg/cm^2
- Drug permeation ([1]; 5%w/v in Labrasol and Lauroglycol, optimised receptor medium): 1 – 4 μg/cm^2
- Mitragynine permeated ([1]; 5%w/v in Maisine and propylene glycol, optimised receptor medium): 6 – 8 µg/cm^2
- Mitragynine permeation [1, 16]: 10 – 15 µg/cm^2
- Skin fluxes [1, 16]: 0.5 – 0.8 µg/cm^2/h
- MTG amount permeated with vs without ascorbic acid in receptor medium (times higher) ([1]; Transcutol-AA and Maisine-AA vs Transcutol and Maisine, 48 h): 3–4 times
- Papp at 48 h, 5 %w/v [1, 4]: 0.00425 ×10⁻⁶ cm/s
- Papp at 48 h, 5 %w/v [1, 5]: 0.00291 ×10⁻⁶ cm/s
- Papp at 48 h, 5 %w/v [1, 6]: 0.000775 ×10⁻⁶ cm/s
- Papp at 48 h, 5 %w/v [1, 8]: 0.000631 ×10⁻⁶ cm/s
- Papp at 48 h, 5 %w/v [1, 10]: 0.00151 ×10⁻⁶ cm/s
- Papp at 48 h, 5 %w/v [1, 12]: 0.00183 ×10⁻⁶ cm/s
- Papp at 48 h, 5 %w/v [1, 13]: 0.00266 ×10⁻⁶ cm/s
- Papp at 48 h, 5 %w/v [1, 14]: 0.00257 ×10⁻⁶ cm/s
- Papp at 48 h, 5 %w/v [1, 15]: 0.00247 ×10⁻⁶ cm/s
- Oral bioavailability [2]: 3%
- Permeation (%) [3, 4]: 0.77 ± 0.12%
- Skin extraction [3, 4]: 0.91 ± 0.19%
- Washing (on skin surface) [3, 4]: 48.69 ± 0.86%
- Permeation (%) [3, 6]: 0.08 ± 0.05%
- Skin extraction [3, 6]: 3.23 ± 1.80%
- Washing (on skin surface) [3, 6]: 70.50 ± 5.24%
- Permeation (%) [3, 7]: 0.07 ± 0.07%
- Skin extraction [3, 7]: 3.67 ± 0.45%
- Washing (on skin surface) [3, 7]: 65.82 ± 5.20%
- Permeation (%) [3, 8]: 0.18 ± 0.12%
- Skin extraction [3, 8]: 1.96 ± 1.22%
- Washing (on skin surface) [3, 8]: 57.28 ± 15.05%
- Permeation (%) [3, 9]: 0.04 ± 0.01%
- Skin extraction [3, 9]: 0.52 ± 0.38%
- Washing (on skin surface) [3, 9]: 66.42 ± 2.26%
- Permeation (%) [3, 10]: 0.42 ± 0.13%
- Skin extraction [3, 10]: 1.34 ± 0.55%
- Washing (on skin surface) [3, 10]: 60.12 ± 1.46%
- Permeation (%) [3, 11]: 0.11 ± 0.10%
- Skin extraction [3, 11]: 0.45 ± 0.18%
- Washing (on skin surface) [3, 11]: 61.67 ± 5.42%
- Permeation (%) [3, 12]: 0.30 ± 0.11%
- Skin extraction [3, 12]: 1.04 ± 0.20%
- Washing (on skin surface) [3, 12]: 45.95 ± 5.07%
- Permeation (%) [3, 14]: 0.51 ± 0.22%
- Skin extraction [3, 14]: 2.29 ± 0.57%
- Washing (on skin surface) [3, 14]: 50.98 ± 9.49%
- Permeation (%) [3, 15]: 0.19 ± 0.07%
- Skin extraction [3, 15]: 2.08 ± 1.11%
- Washing (on skin surface) [3, 15]: 71.94 ± 8.01%
- recovery at 48 h, 5 %w/v ([3]; 5%w/v MTG in DMSO, receptor PBS with 0.01%w/v ascorbic acid (DMSO-AA), 48 h, read-out: Total percentage (mass balance recovery)): 50.7 ± 1.17%
- recovery at 48 h, 5 %w/v ([3]; 5%w/v MTG in Labrasol, receptor PBS with 0.01%w/v ascorbic acid (Labrasol-AA), 48 h, read-out: Total percentage (mass balance recovery)): 75.7 ± 7.09%
- recovery at 48 h, 5 %w/v ([3]; 5%w/v MTG in Labrasol, receptor PBS without ascorbic acid, 48 h, read-out: Total percentage (mass balance recovery)): 70.1 ± 5.72%
- recovery at 48 h, 5 %w/v ([3]; 5%w/v MTG in Lauroglycol, receptor PBS without ascorbic acid, 48 h, read-out: Total percentage (mass balance recovery)): 67.4 ± 2.65%
- recovery at 48 h, 5 %w/v ([3]; 5%w/v MTG in PG, receptor PBS with 0.01%w/v ascorbic acid (PG-AA), 48 h, read-out: Total percentage (mass balance recovery)): 47.6 ± 5.37%
- recovery at 48 h, 5 %w/v ([3]; 5%w/v MTG in Transcutol, receptor PBS without ascorbic acid, 48 h, read-out: Total percentage (mass balance recovery)): 75.4 ± 9.19%
- recovery at 48 h, 5 %w/v ([3]; Mitragynine recovery in mass balance studies, 5%w/v in single solvent systems): < 80%
